In US8304577B2, “Modulators of G protein-coupled receptor 88” (Bristol-Myers Squibb Company, priority 2009, dated 2012):

Biological target: G protein-coupled receptor 88 (GPR88) (Homo sapiens, UniProt Q9GZN0)
Experiment: GPR88 functional assay: EC50 of Table 2 (GTPγS assay and cAMP HTRF assay described; table does not say which)
Type: cell-based
Details: class symbol; read-out: Range (EC50)
Method: 96 well GTPγS assay plates were purchased from Perkin Elmer. Wheat Germ Agglutinin PVT SPA beads and ^35S-GTPγS were purchased from Amersham GDP, GTPγS and all buffer reagents were from Sigma. 384 well white NBS plates were purchased from corning. Pertussis toxin was purchased from Calbiochem. All cell culture reagents were purchased from Invitrogen. Forskolin was purchased from Sigma. The cAMP HTRF kit was purchased fron Cisbio International.
The GTPγS assay buffer consisted of 10 mM MgCl2, 180 mM NaCl, 200 uM GDP, 0.167 mg/mL DTT, 1 mM EGTA and 20 mM HEPES pH7.4. This buffer was used for dilution of membranes, beads, and ^35S GTPγS components. To each well of the 96 well assay plate 48 ul assay buffer, 2 ul of 100× compound, 50 ul membrane solution (0.2 ug/ul), 50 ul ^35S GTPγS solution (0.8 nM) and 50 ul of SPA beads (10 mg/mL). Non-specific binding was determined by the addition of cold GTPγS to control wells. The plates were sealed with clear sealing tape and incubated at room temperature for 1 hour. GTPγS activity was detected using a Wallac Micro-Beta Trilux liquid scintillation counter. Non-specific binding was determined using 10 uM cold GTPγS.
The cAMP HTRF assay is modified from the Cisbio International kit procedure 62AM4PEJ. Assay plates were prepared by stamping 0.1 ul of 100× compound stock solutions diluted in DMSO or DMSO alone into 384 well NBS plates. The cAMP HTRF assay was performed using cells in suspension. The cAMP HTRF assay buffer consisted of Hank's Balanced Salt Solution (HBSS), 2 mM CaCl2, 5 mM MgCl2, 20 mM HEPES and 1 mM 3-isobutyl-1-methylxanthine (IBMX) (added fresh at the time of assay). For pertussis toxin treatment pertussis toxin (100 ng/mL) was added to culture medium for 16 hours prior to assay. Confluent cells were disrupted with cell dissociation buffer count cells then centrifuged at 1000×g for 5 minutes. The cell pellet was resuspended in assay buffer alone for basal cAMP measurements or with 0.75 uM forskolin (added immediately prior to addition to wells) for addition to all other wells. Using a Multidrop 384 (Lab systems) 10 ul of cell suspension was added to each well containing compound or DMSO. The plates were incubated at room temperature for 30 minutes covered. During this time the cAMP standard curve was prepared as per manufacturer's instruction. At the end of the incubation 10 ul of anti-cAMP cryptate and 10 ul cAMP-XL, diluted in manufacturer's lysis buffer, were added to each well. The plated were incubated at room temperature for 60 minutes covered then read on an Envision plate reader (Perkin Elmer) and the 665 nm/620 nm fluorescence ratio determined Fluorescence ratio values were converted to molar cAMP concentrations from the standard curve using the GraphPad Prism program.

G protein-coupled receptor 88 (GPR88), sequence (Q9GZN0 whole entry, species assumed): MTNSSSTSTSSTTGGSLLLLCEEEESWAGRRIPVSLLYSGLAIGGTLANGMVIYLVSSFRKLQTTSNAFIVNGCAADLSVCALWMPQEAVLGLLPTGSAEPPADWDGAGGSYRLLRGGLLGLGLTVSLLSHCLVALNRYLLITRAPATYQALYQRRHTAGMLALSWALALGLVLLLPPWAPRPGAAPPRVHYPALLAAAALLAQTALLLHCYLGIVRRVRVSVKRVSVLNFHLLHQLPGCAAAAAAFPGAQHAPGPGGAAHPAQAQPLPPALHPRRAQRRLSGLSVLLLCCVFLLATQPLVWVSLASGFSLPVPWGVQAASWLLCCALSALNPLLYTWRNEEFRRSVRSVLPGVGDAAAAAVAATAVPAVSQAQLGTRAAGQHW

EC50	SMILES
100 to 200 nM	CCCC(C)COc1ccc([C@H](CNC(=O)[C@@H](N)[C@@H](C)OC)NC(=O)[C@@H](C)c2ccccc2)cc1 (stereo partly drawn) [Example 32, (2S,3R)-2-Amino-3-methoxy-N-((2R)-2-(4-(2-methylpentyloxy)phenyl)-2-((S)-2-phenylpropanamido)ethyl)butanamide]
100 to 200 nM	CCCC(C)COc1ccc([C@H](CNC(=O)[C@H](N)[C@@H](C)CC)NC(=O)[C@@H](C)c2ccccc2)cc1 (stereo partly drawn) [Example 33, (2R,3S)-2-Amino-3-methyl-N-((2R)-2-(4-(2-methylpentyloxy)phenyl)-2-((S)-2-phenylpropanamido)ethyl)pentanamide]
39 to 99 nM	CCCC(C)COc1ccc([C@H](CNC(=O)[C@H](N)[C@H](C)CC)NC(=O)[C@@H](C)c2ccccc2)cc1 (stereo partly drawn) [Example 22, (2R,3R)-2-Amino-3-methyl-N-((2R)-2-(4-(2-methylpentyloxy)phenyl)-2-((S)-2-phenylpropanamido)ethyl)pentanamide]

Second part, the compound before the results:

SMILES	EC50
CCCC(C)COc1ccc([C@H](CNC(=O)[C@@H](N)CC2CC2)NC(=O)[C@@H](C)c2ccccc2)cc1 (stereo partly drawn) [Example 28, (2S)-2-Amino-3-cyclopropyl-N-((2R)-2-(4-(2-methylpentyloxy)phenyl)-2-((S)-2-phenylpropanamido)ethyl)propanamide]	100 to 200 nM
CCCC(C)COc1ccc([C@H](CNC(=O)[C@H](N)CC(C)C)NC(=O)[C@@H](C)c2ccccc2)cc1 (stereo partly drawn) [Example 20, (2R)-2-Amino-4-methyl-N-((2R)-2-(4-(2-methylpentyloxy)phenyl)-2-((S)-2-phenylpropanamido)ethyl)pentanamide]	39 to 99 nM
CCCC(C)COc1ccc([C@H](CO)NC(=O)[C@@H](CC)c2ccccc2)cc1 (stereo partly drawn) [Example 2, (2S)-N-((1R)-2-Hydroxy-1-(4-(2-methylpentyloxy)phenyl)ethyl)-2-phenylbutanamide]	100 to 200 nM
CCCC(C)COc1ccc([C@H](CNC(=O)[C@H](C)N)NC(=O)[C@@H](C)c2ccccc2)cc1 (stereo partly drawn) [Example 23, (2S)-2-Amino-N-((2R)-2-(4-(2-methylpentyloxy)phenyl)-2-((S)-2-phenylpropanamido)ethyl)propanamide]	39 to 99 nM
CCCC(C)COc1ccc([C@H](CNC(=O)[C@@H](N)CC)NC(=O)[C@@H](C)c2ccccc2)cc1 (stereo partly drawn) [Example 25, (2S)-2-Amino-N-((2R)-2-(4-(2-methylpentyloxy)phenyl)-2-((S)-2-phenylpropanamido)ethyl)butanamide]	39 to 99 nM
CCCC(C)COc1ccc([C@H](CN2CCOCC2)NC(=O)[C@@H](C)c2ccccc2)cc1 (stereo partly drawn) [Example 35, (2S)-N-((1R)-1-(4-(2-Methylpentyloxy)phenyl)-2-morpholinoethyl)-2-phenylpropanamide]	100 to 200 nM
CCCC(C)COc1ccc([C@H](CNCc2ccncc2)NC(=O)[C@@H](C)c2ccccc2)cc1 (stereo partly drawn) [Example 9, (2S)-N-((1R)-1-(4-(2-Methylpentyloxy)phenyl)-2-(pyridin-4-ylmethylamino)ethyl)-2-phenylpropanamide]	100 to 200 nM
